In patent US20260130933A1, “PHARMACEUTICAL COMPOSITION FOR PREVENTION OR TREATMENT OF NEPHROPATHY AND/OR DIABETES MELLITUS, COMPRISING ENAVOGLIFLOZIN” (DAEWOONG PHARMACEUTICAL CO., LTD., priority 2022, published 2026):
“And” between values parts separate entries of the source, which are not always exact repeats. Equal values may be shown once.

Assay: Example 2: phase 3 trial, enavogliflozin 0.3 mg vs dapagliflozin 10 mg once a day for 24 weeks added to metformin in patients with type 2 diabetes (same efficacy, exploratory and safety endpoints)
Format: in vivo, human
Settings: for Change from baseline in total cholesterol, ANCOVA LS mean difference / Change from baseline in Total cholesterol, ANCOVA LS mean (SE) / Change from baseline in Total cholesterol, Mean (SD) / Change from baseline in total cholesterol, Median / fasting Total cholesterol, Mean (SD) / fasting Total cholesterol, Median: modified per-protocol set 1
Experimental: Subjects who met the inclusion/exclusion criteria were administered a placebo of the clinical trial drug under single-blind (subject blinding) conditions during a 2-week run-in period while continuing to receive metformin. […] The randomized subjects were administered two tablets of the clinical trial drug for each administration group once a day, and then visited the institution at weeks 6, 12, 18, and 24 during the 24-week administration period to conduct efficacy and safety evaluations.
• 1. Change in HbA1c at week 24 after administration of clinical trial drug compared to Visit 2 (randomization)
• 1. Change in HbA1c at each time point of weeks 6, 12, and 18 after administration of clinical trial drug compared to Visit 2 (randomization) • 2. Change in FPG at each time point of weeks 6, 12, 18, and 24 after administration of clinical trial drug compared to Visit 2 (randomization) • 3. Proportion of subjects achieving HbA1c<7% at each time point of weeks 6, 12, 18, and 24 after administration of clinical trial drug • 4. Proportion of subjects achieving HbA1c<6.5% at each time point of weeks 6, 12, 18, and 24 after administration of clinical trial drug • 5. Proportion of subjects achieving therapeutic response (HbA1c change (HbA1c at Visit 2-HbA1c at each evaluation time point)>0.5% or HbA1c<7% at each evaluation time point compared to Visit 2 (randomization)) at each time point of weeks 6, 12, 18 and 24 after administration of clinical trial drug
• 1. Change in fasting c-peptide at each time point of weeks 6, 12, 18, and 24 after administration of clinical trial drug compared to Visit 2 (randomization) • 2. Change in body weight at each time point of weeks 6, 12, 18, and 24 after administration of clinical trial drug compared to Visit 2 (randomization) • 3. Change in fasting lipid concentration (total cholesterol, LDL-C, HDL-C, and triglycerides) at each time point of weeks 6, 12, 18, and 24 after administration of clinical trial drug compared to Visit 2 (randomization) • 4. Changes in systolic or diastolic blood pressure at each time point of weeks 6, 12, 18, and 24 after administration of clinical trial drug compared to Visit 2 (randomization) • 5. Changes in β-cell function and insulin resistance measured by HOMA-β and HOMA-IR at each time point of weeks 6, 12, 18, and 24 after administration of clinical trial drug compared to Visit 2 (randomization) • 6. Changes in renal function-related indicators (UACR, UGCR) measured by UACR at each time point of weeks 6, 12, 18, and 24 after administration of clinical trial drug compared to Visit 2 (randomization) • 7. Changes in obesity-related indicators (adiponectin, leptin) at each time point of weeks 6, 12, 18, and 24 after administration of clinical trial drug compared to Visit 2 (randomization)

[1] = week 12, per-protocol set, enavogliflozin 0.3 mg, dapagliflozin 10 mg
[2] = week 18, listed as enavogliflozin
[3] = week 18, enavogliflozin 0.3 mg, dapagliflozin 10 mg
[4] = week 18, per-protocol set, enavogliflozin 0.3 mg vs dapagliflozin 10 mg
[5] = week 18, per-protocol set, enavogliflozin 0.3 mg, dapagliflozin 10 mg
[6] = week 24, listed as enavogliflozin
[7] = week 24, enavogliflozin 0.3 mg, dapagliflozin 10 mg
[8] = week 24, per-protocol set, enavogliflozin 0.3 mg vs dapagliflozin 10 mg
[9] = week 24, per-protocol set, enavogliflozin 0.3 mg, dapagliflozin 10 mg

## OC[C@H]1O[C@@H](c2cc(Cc3ccc(C4CC4)cc3)c(Cl)c3c2CCO3)[C@H](O)[C@@H](O)[C@@H]1O [Enavogliflozin, (2S,3R,4R,5S,6R)-2-(7-chloro-6 (4-cyclopropylbenzyl)-2,3-dihydrobenzofuran-4-yl)-6-(hydroxymethyl)tetrahydro-2H-pyran-3,4,5-triol]
[1]
  FPG, Median: 115.50 mg/dL
  HbA1c, Mean (SD): 6.97%
  HbA1c, Median: 6.83%
  Subjects achieving HbA1c target of <6.5%, (%): (15.96) %
  Subjects achieving therapeutic glycemic response, (%): (88.30) %
  body weight, Mean (SD): 67.44(11.05) kg
  body weight, Median: 65.70 kg
  fasting c-peptide, Mean (SD): 0.65(0.28) ng/mL
  fasting c-peptide, Median: 0.61 ng/mL
Week 18
  FPG change from baseline, LS mean (SE): −33.44(1.60) mg/dL
  HOMA-IR change from baseline, LS mean (SE): −1.79(0.11)
  HOMA-β change from baseline, LS mean (SE): 10.97(3.06)
  HbA1c change from baseline, LS mean (SE): −0.74(0.06) % p
  LDL-C change from baseline, LS mean (SE): 1.42(1.86) mg/dL
  Subjects achieving HbA1c target of <7%: (62.64) %
  Subjects achieving HbA1c<6.5%: 9.89%
  Subjects achieving therapeutic response (HbA1c change >0.5% or HbA1c<7%): 80.22%
  UACR change from baseline, LS mean (SE): −23.05(5.06) g/kg
  diastolic blood pressure change from baseline, LS mean (SE): −4.80(0.78) mmHg
  fasting c-peptide change from baseline, LS mean (SE): −0.07(0.18) ng/ml
  leptin change from baseline, LS mean (SE): −2.49(0.52) ng/mL
  systolic blood pressure change from baseline, LS mean (SE): -6.69 mmHg
Week 18, vs dapagliflozin
  FPG change from baseline, LS mean difference: -2.31 mg/dL
  HDL-C change from baseline, LS mean difference: -0.62 mg/dL
  HOMA-IR change from baseline, LS mean difference: −0.32
  HOMA-β change from baseline, LS mean difference: −2.53
  HbA1c change from baseline, LS mean difference: −0.05 % p
  LDL-C change from baseline, LS mean difference: -1.15 mg/dL
  Odds ratio for achieving HbA1c<6.5%: 0.31
  Odds ratio for achieving HbA1c<7%: 1.29
  Odds ratio for achieving therapeutic response: 1.58
  UACR change from baseline, LS mean difference: −10.10
  UGCR change from baseline, LS mean difference: 18.25 mg/mg
  body weight change from baseline, LS mean difference: 0.02 kg
  diastolic blood pressure change from baseline, LS mean difference: −0.70 mmHg
  fasting c-peptide change from baseline, LS mean difference: -0.02 ng/mL
  leptin change from baseline, LS mean difference: -1.26 ng/mL
  systolic blood pressure change from baseline, LS mean difference: −0.72 mmHg
  total cholesterol change from baseline, LS mean difference: -1.77 mg/dL
  triglyceride change from baseline, LS mean difference: -6.87 mg/dL
[2]
  Subjects achieving HbA1c target of <7%: 62.64%
  UGCR change from baseline, LS mean (SE): 60.97(2.13) mg/mg and 42.72(2.15) mg/mg
Week 18, enavogliflozin 0.3 mg vs dapagliflozin 10 mg
  Change from baseline in total cholesterol, ANCOVA LS mean difference: -1.77 mg/dL
[3]
  Change from baseline in Total cholesterol, ANCOVA LS mean (SE): 7.80(2.16) mg/dL
  Change from baseline in Total cholesterol, Mean (SD): 6.23(16.54) mg/dL
  Change from baseline in total cholesterol, Median: 6.00 mg/dL
  fasting Total cholesterol, Mean (SD): 156.99(32.54) mg/dL
  fasting Total cholesterol, Median: 149.00 mg/dL
[4]
  Change from baseline in FPG, ANCOVA LS mean difference: -2.31 mg/dL
  Change from baseline in HbA1c, ANCOVA LS mean difference: −0.05 % p
  Change from baseline in body weight, ANCOVA LS mean difference: 0.02 kg
  Change from baseline in fasting c-peptide, ANCOVA LS mean difference: -0.02 ng/mL
  Odds ratio for achieving HbA1c target of <6.5%, logistic regression model: 0.31
  Odds ratio for achieving therapeutic glycemic response, logistic regression model: 1.58
[5]
  Change from baseline in FPG, ANCOVA LS mean (SE): -33.44 mg/dL
  Change from baseline in FPG, Mean (SD): -31.78 mg/dL
  Change from baseline in FPG, Median: -31.00 mg/dL
  Change from baseline in HbA1c, ANCOVA LS mean (SE): −0.74 % p
  Change from baseline in HbA1c, Mean (SD): −0.71 % p
  Change from baseline in HbA1c, Median: −0.56 % p
  Change from baseline in body weight, ANCOVA LS mean (SE): −3.14(0.26) kg
  Change from baseline in body weight, Mean (SD): −3.17(2.68) kg
  Change from baseline in body weight, Median: -3.20 kg
  Change from baseline in fasting c-peptide, ANCOVA LS mean (SE): −0.08(0.02) ng/mL
  Change from baseline in fasting c-peptide, Mean (SD): −0.07(0.18) ng/mL
  Change from baseline in fasting c-peptide, Median: -0.07 ng/mL
  FPG, Mean (SD): 112.95 mg/dL
  FPG, Median: 113.00 mg/dL
  HbA1c, Mean (SD): 7.02%
  HbA1c, Median: 6.89%
  Subjects achieving HbA1c target of <6.5%, (%): (9.89) %
  Subjects achieving therapeutic glycemic response, (%): (80.22) %
  body weight, Mean (SD): 66.72(11.26) kg
  body weight, Median: 64.30 kg
  fasting c-peptide, Mean (SD): 0.65(0.24) ng/mL
  fasting c-peptide, Median: 0.61 ng/mL
Week 24
  FPG change from baseline, LS mean (SE): −32.53(1.76) mg/dL
  HOMA-IR change from baseline, LS mean (SE): −1.85(0.13)
  HOMA-β change from baseline, LS mean (SE): 6.94(3.17)
  HbA1c change from baseline, LS mean (SE): −0.80 % p
  HbA1c change from baseline, Mean (SD): −0.78 % p
  HbA1c, Mean: 6.98%
  LDL-C change from baseline, LS mean (SE): 1.64(1.92) mg/dL
  Subjects achieving HbA1c target of <7%: (61.05) %
  Subjects achieving HbA1c<6.5%: 13.68%
  Subjects achieving therapeutic response (HbA1c change >0.5% or HbA1c<7%): 78.95%
  UACR change from baseline, LS mean (SE): −24.29(3.38) g/kg
  UGCR change from baseline, LS mean (SE): 60.48(2.12) mg/mg
  diastolic blood pressure change from baseline, LS mean (SE): −5.41(0.65) mmHg
  fasting c-peptide change from baseline, LS mean (SE): −0.10(0.16) ng/ml
  leptin change from baseline, LS mean (SE): −2.40(0.51) ng/mL
Week 24, vs dapagliflozin
  FPG change from baseline, LS mean difference: -3.38 mg/dL
  HDL-C change from baseline, LS mean difference: -0.14 mg/dL
  HOMA-IR change from baseline, LS mean difference: −0.53
  HOMA-β change from baseline, LS mean difference: −4.99
  HbA1c change from baseline, LS mean difference: −0.04 % p
  LDL-C change from baseline, LS mean difference: 0.71 mg/dL
  Odds ratio for achieving HbA1c<6.5%: 0.40
  Odds ratio for achieving HbA1c<7%: 0.97
  Odds ratio for achieving therapeutic response: 1.30
  UACR change from baseline, LS mean difference: −6.93
  UGCR change from baseline, LS mean difference: 15.54 mg/mg
  body weight change from baseline, LS mean difference: -0.18 kg
  diastolic blood pressure change from baseline, LS mean difference: −1.15 mmHg
  fasting c-peptide change from baseline, LS mean difference: -0.06 ng/mL
  leptin change from baseline, LS mean difference: -1.12 ng/mL
  systolic blood pressure change from baseline, LS mean difference: 0.63 mmHg
  total cholesterol change from baseline, LS mean difference: 2.40 mg/dL
  triglyceride change from baseline, LS mean difference: 1.63 mg/dL
[6]
  HbA1c change from baseline, LS mean (SE): −0.80(0.06) % p
  HbA1c change from baseline, Mean (SD): −0.78(0.73) % p
  Subjects achieving HbA1c target of <7%: 61.05%
Week 24, enavogliflozin 0.3 mg vs dapagliflozin 10 mg
  Change from baseline in total cholesterol, ANCOVA LS mean difference: 2.40 mg/dL
[7]
  Change from baseline in Total cholesterol, ANCOVA LS mean (SE): 9.13(2.22) mg/dL
  Change from baseline in Total cholesterol, Mean (SD): 7.99(20.78) mg/dL
  Change from baseline in total cholesterol, Median: 11.00 mg/dL
  fasting Total cholesterol, Mean (SD): 159.42(32.17) mg/dL
  fasting Total cholesterol, Median: 157.00 mg/dL
[8]
  Change from baseline in FPG, ANCOVA LS mean difference: -3.38 mg/dL
  Change from baseline in body weight, ANCOVA LS mean difference: -0.18 kg
  Change from baseline in fasting c-peptide, ANCOVA LS mean difference: -0.06 ng/mL
  Odds ratio for achieving HbA1c target of <6.5%, logistic regression model: 0.40
  Odds ratio for achieving therapeutic glycemic response, logistic regression model: 1.30
[9]
  Change from baseline in FPG, ANCOVA LS mean (SE): -32.53 mg/dL
  Change from baseline in FPG, Mean (SD): -31.77 mg/dL
  Change from baseline in FPG, Median: -31.00 mg/dL
  Change from baseline in body weight, ANCOVA LS mean (SE): −3.77(0.33) kg
  Change from baseline in body weight, Mean (SD): −3.78(3.77) kg
  Change from baseline in body weight, Median: -3.60 kg
  Change from baseline in fasting c-peptide, ANCOVA LS mean (SE): −0.10(0.02) ng/mL
  Change from baseline in fasting c-peptide, Mean (SD): −0.10(0.16) ng/mL
  Change from baseline in fasting c-peptide, Median: -0.07 ng/mL
  FPG, Mean (SD): 113.58 mg/dL
  FPG, Median: 113.00 mg/dL
  Subjects achieving HbA1c target of <6.5%, (%): (13.68) %
  Subjects achieving therapeutic glycemic response, (%): (78.95) %
  body weight, Mean (SD): 66.39(10.90) kg
  body weight, Median: 64.40 kg
  fasting c-peptide, Mean (SD): 0.62(0.22) ng/mL
  fasting c-peptide, Median: 0.56 ng/mL
